# Assay results from patent publication US6900318B1, “1,4,5,6-tetrahydropyrimidine derivative as a vitronectin inhibitor” (Aventis Pharma Deutscland GmbH, priority 1999, dated 2005).
# System: thyroparathyroidectomized (TPTX) rats
# Assay: PTH-induced hypercalcemia in the TPTX rat model of bone resorption
# Type: in vivo
# Conditions: PTH treated TPTX male Sprague Dawley rats; perorally twice at 10 mg/kg (time 0 and 3 h after start of PTH infusion); serum at 6 hours
# From the text: 9) Pharmacological Testing: PTH-Induced Hypercalcemia in the TPTX Rat Model of Bone Resorption
# In this in vivo model a stimulation of bone resorption is induced in thyroparathyroidectomized (TPTX) rats by the infusion of parathyroid hormone (PTH). The changes in bone resorption are monitored by measuring the serum calcium concentration which is directly related to the extent of bone resorption.
# Male Sprague Dawley rats (OFA-IFFA CREDO, France) weighting 150-200 g were thyroparathyroidectomized by the supplier. The rats were allowed free access to a standard commercial pelleted diet containing 7 g Ca/kg (UAR) and Eau de Volvic water. The success of thyroparathyroidectomy was tested by measuring serum calcium concentrations 8 days after operation in overnight fasted animals. Rats were considered as TPTX when the serum calcium level was <80 mg/l.
# For treatment with PTH, rat PTH(1-34) (Bachem) was dissolved in 0.15 M sodium chloride solution containing 2% Cys-HCl and delivered via osmotic minipumps (ALZET 2001 D) at 200 pmol/kg/h. […]
# Serum total calcium concentrations (=calcemia) were measured […] (Ciba-Corning) using a IEMS Labsystems microplate reader at 540 nm. The differences between the mean values of calcemia in the groups were analysed for variance and by Dunnett's test. The activity of the test compound was calculated as % effect according to the formula: [formula]
compound,measurement,value
"CCOC(=O)[C@H](CNC(=O)c1ccc(CCC(=O)NC2=NCCCN2)cc1)NS(=O)(=O)c1cccc2ccccc12.O=C(O)/C=C/C(=O)O [compound of formula I, ethyl (2S)-2-(naphthalene-1-sulfonylamino)-3-(4-(2-(1,4,5,6-tetrahydropyrimidin-2-ylcarbamoyl)ethyl)benzoylamino)propionate hemifumarate]",% effect on serum total calcium concentration (calcemia),−45%
